Test results reported in the NIST ThermoML archive (doi:10.1007/s10765-011-1052-5).
“And” between values parts separate entries of the source, which are not always exact repeats. Equal values may be shown once. ± gives the expanded uncertainty stated by the source.

Conditions: Fluid (supercritical or subcritical phases), Hot wire method

[He] [helium]
Conditions	thermal conductivity
323.19 K, 5030 kPa	0.1676 ± 0.0038 W/m/K
323.19 K, 10055 kPa	0.1696 ± 0.0038 W/m/K and 0.1695 ± 0.0038 W/m/K and 0.1694 ± 0.0038 W/m/K
323.19 K, 29885 kPa	0.1784 ± 0.004 W/m/K and 0.1786 ± 0.004 W/m/K
323.19 K, 29886 kPa	0.1782 ± 0.004 W/m/K
323.19 K, 29887 kPa	0.1783 ± 0.004 W/m/K
323.2 K, 5030 kPa	0.1674 ± 0.0038 W/m/K and 0.1675 ± 0.0038 W/m/K and 0.1677 ± 0.0038 W/m/K
323.21 K, 50067 kPa	0.187 ± 0.0042 W/m/K
323.21 K, 50070 kPa	0.1872 ± 0.0042 W/m/K
323.21 K, 50072 kPa	0.1872 ± 0.0042 W/m/K
323.21 K, 50075 kPa	0.187 ± 0.0042 W/m/K
323.21 K, 70102 kPa	0.196 ± 0.0044 W/m/K
323.21 K, 70105 kPa	0.196 ± 0.0044 W/m/K
323.21 K, 70109 kPa	0.1961 ± 0.0044 W/m/K
323.21 K, 70112 kPa	0.1964 ± 0.0044 W/m/K
323.21 K, 98251 kPa	0.2089 ± 0.0047 W/m/K
323.21 K, 98254 kPa	0.2085 ± 0.0047 W/m/K
323.21 K, 98259 kPa	0.2085 ± 0.0047 W/m/K
323.21 K, 98263 kPa	0.2086 ± 0.0047 W/m/K
373.22 K, 5137 kPa	0.1853 ± 0.0042 W/m/K
373.22 K, 30213 kPa	0.1948 ± 0.0044 W/m/K
373.22 K, 30214 kPa	0.1948 ± 0.0044 W/m/K and 0.1945 ± 0.0044 W/m/K
373.22 K, 49990 kPa	0.2028 ± 0.0045 W/m/K
373.22 K, 49992 kPa	0.2028 ± 0.0045 W/m/K
373.22 K, 49994 kPa	0.2033 ± 0.0046 W/m/K
373.23 K, 5137 kPa	0.185 ± 0.0042 W/m/K and 0.1845 ± 0.0041 W/m/K
373.23 K, 10114 kPa	0.1866 ± 0.0042 W/m/K and 0.1868 ± 0.0042 W/m/K
373.23 K, 69936 kPa	0.2139 ± 0.0048 W/m/K and 0.2138 ± 0.0048 W/m/K
373.23 K, 69937 kPa	0.214 ± 0.0048 W/m/K
373.23 K, 97514 kPa	0.2284 ± 0.0051 W/m/K
373.23 K, 97516 kPa	0.2277 ± 0.0051 W/m/K
373.23 K, 97527 kPa	0.2275 ± 0.0051 W/m/K
473.27 K, 5260 kPa	0.2166 ± 0.0049 W/m/K
473.27 K, 5261 kPa	0.2169 ± 0.0049 W/m/K
473.27 K, 10172 kPa	0.2187 ± 0.0049 W/m/K and 0.2183 ± 0.0049 W/m/K
473.27 K, 10173 kPa	0.2193 ± 0.0049 W/m/K
473.27 K, 50076 kPa	0.2321 ± 0.0052 W/m/K
473.27 K, 50078 kPa	0.2322 ± 0.0052 W/m/K
473.27 K, 50080 kPa	0.2317 ± 0.0052 W/m/K
473.27 K, 70131 kPa	0.2428 ± 0.0054 W/m/K
473.27 K, 70135 kPa	0.2422 ± 0.0054 W/m/K
473.27 K, 70138 kPa	0.2419 ± 0.0054 W/m/K
473.27 K, 99148 kPa	0.2558 ± 0.0057 W/m/K
473.27 K, 99151 kPa	0.2549 ± 0.0057 W/m/K
473.27 K, 99156 kPa	0.2552 ± 0.0057 W/m/K
473.28 K, 5261 kPa	0.2173 ± 0.0049 W/m/K
473.28 K, 30084 kPa	0.2252 ± 0.005 W/m/K
473.28 K, 30085 kPa	0.2251 ± 0.005 W/m/K and 0.226 ± 0.0051 W/m/K
473.29 K, 99160 kPa	0.2472 ± 0.0055 W/m/K
573.24 K, 30146 kPa	0.2549 ± 0.0057 W/m/K
573.24 K, 50100 kPa	0.2618 ± 0.0059 W/m/K
573.24 K, 70129 kPa	0.2675 ± 0.006 W/m/K
573.24 K, 97066 kPa	0.2798 ± 0.0063 W/m/K
573.24 K, 97071 kPa	0.2805 ± 0.0063 W/m/K
573.24 K, 97072 kPa	0.2792 ± 0.0063 W/m/K
573.25 K, 5197 kPa	0.2478 ± 0.0056 W/m/K
573.25 K, 5199 kPa	0.2472 ± 0.0055 W/m/K
573.25 K, 5200 kPa	0.2477 ± 0.0055 W/m/K
573.25 K, 10292 kPa	0.2503 ± 0.0056 W/m/K
573.25 K, 10294 kPa	0.2496 ± 0.0056 W/m/K
573.25 K, 10295 kPa	0.2496 ± 0.0056 W/m/K
573.25 K, 30146 kPa	0.2552 ± 0.0057 W/m/K
573.25 K, 30149 kPa	0.2558 ± 0.0057 W/m/K
573.25 K, 50095 kPa	0.2609 ± 0.0058 W/m/K
573.25 K, 50100 kPa	0.2599 ± 0.0058 W/m/K
573.25 K, 70160 kPa	0.268 ± 0.006 W/m/K
573.25 K, 70165 kPa	0.2662 ± 0.006 W/m/K
672.87 K, 98224 kPa	0.3057 ± 0.0068 W/m/K
672.87 K, 98230 kPa	0.3055 ± 0.0068 W/m/K
672.87 K, 98231 kPa	0.3054 ± 0.0068 W/m/K
672.88 K, 30064 kPa	0.2852 ± 0.0064 W/m/K
672.88 K, 30085 kPa	0.2823 ± 0.0063 W/m/K
672.88 K, 50184 kPa	0.2882 ± 0.0065 W/m/K
672.88 K, 70068 kPa	0.293 ± 0.0066 W/m/K
672.88 K, 70074 kPa	0.2949 ± 0.0066 W/m/K
672.88 K, 70081 kPa	0.2948 ± 0.0066 W/m/K
672.89 K, 5417 kPa	0.2774 ± 0.0062 W/m/K
672.89 K, 10409 kPa	0.2788 ± 0.0062 W/m/K
672.89 K, 10412 kPa	0.279 ± 0.0062 W/m/K
672.89 K, 10414 kPa	0.2784 ± 0.0062 W/m/K
672.89 K, 30054 kPa	0.2843 ± 0.0064 W/m/K
672.89 K, 50178 kPa	0.2895 ± 0.0065 W/m/K
672.89 K, 50182 kPa	0.2888 ± 0.0065 W/m/K
672.9 K, 5413 kPa	0.2765 ± 0.0062 W/m/K
672.9 K, 5416 kPa	0.277 ± 0.0062 W/m/K
771.89 K, 50118 kPa	0.3162 ± 0.0071 W/m/K
771.89 K, 50125 kPa	0.3184 ± 0.0071 W/m/K
771.89 K, 50128 kPa	0.3182 ± 0.0071 W/m/K
771.89 K, 70299 kPa	0.3237 ± 0.0072 W/m/K
771.89 K, 70303 kPa	0.3173 ± 0.0071 W/m/K
771.89 K, 70305 kPa	0.3224 ± 0.0072 W/m/K
771.89 K, 99452 kPa	0.3302 ± 0.0074 W/m/K
771.89 K, 99460 kPa	0.3299 ± 0.0074 W/m/K
771.89 K, 99462 kPa	0.3321 ± 0.0074 W/m/K
771.9 K, 30345 kPa	0.3126 ± 0.007 W/m/K
771.9 K, 30348 kPa	0.3102 ± 0.0069 W/m/K
771.9 K, 30350 kPa	0.313 ± 0.007 W/m/K
771.91 K, 10197 kPa	0.3094 ± 0.0069 W/m/K
771.91 K, 10199 kPa	0.3093 ± 0.0069 W/m/K
771.92 K, 5204 kPa	0.3065 ± 0.0069 W/m/K
771.93 K, 3005 kPa	0.3046 ± 0.0068 W/m/K
771.93 K, 3008 kPa	0.3049 ± 0.0068 W/m/K
771.93 K, 5202 kPa	0.3079 ± 0.0069 W/m/K
771.94 K, 1059 kPa	0.2998 ± 0.0067 W/m/K
771.94 K, 1068 kPa	0.3028 ± 0.0068 W/m/K
771.94 K, 1071 kPa	0.3022 ± 0.0068 W/m/K
771.94 K, 1074 kPa	0.304 ± 0.0068 W/m/K
771.94 K, 3001 kPa	0.3012 ± 0.0067 W/m/K
771.94 K, 3003 kPa	0.3055 ± 0.0068 W/m/K
